Patent US10865218B2, “Fluoride fluorescence probe” (The Procter & Gamble Company, priority 2017, dated 2020)

Key:
[1] = Fluoride ion sensing: fluorescence and absorption spectra of the probes with NaF; assay type: physicochemical; conditions: probe alone, before F^−
Procedure: The procedure for fluoride ion sensing is described. Stock solutions of inventive compounds R1-R3 (1 mM) are prepared in DMSO. The test solutions of the inventive compounds R1-R3 (10 μM) in […] DMSO-HEPES solution (3/2, v/v, 10 mM HEPES, pH=7.2) are prepared by placing stock solutions in 10-mL volumetric flask, and diluting with buffer solution. The resulting solutions are shaken well and incubated at room temperature for 50 minutes before recording the spectra.
Sodium fluoride (NaF) is used as a fluoride source for the fluoride ion sensing test. Stock solution of NaF (1 mM) is prepared in deionized water. The test solutions of the inventive compounds R1-R3 (10 μM) with NaF (500 μM) are prepared by placing stock solutions in 10-mL volumetric flask, and diluting with buffer solution. The resulting solutions are shaken well and incubated at room temperature for 50 minutes before recording the spectra.
UV-visible spectra are recorded on a Shimadzu UV-2550 spectrometer. Steady-state emission experiments at room temperature are measured on an Edinburgh instrument FLS-920 spectrometer with a Xe lamp as an excitation source. Unless otherwise noted, for all measurements, the excitation wavelength is 620 nm and the emission wavelength is collected from 640 to 780 nm.
The color changed from colorless to blue, which can be visible by naked eyes. The reaction mechanism is further confirmed by HR-MS analysis in aqueous solution. After treated with NaF, a new peak is appeared in the solution with almost the same HR-MS data for the three compounds (R1: 284.1214; R2: 284.1202; R3: 284.1209), which is nearly identical to the theoretical molecular mass of the MB ([M−Cl^−]^+=284.1216).

[2] = Fluorescence intensity change with pH variation; assay type: physicochemical; conditions: 10 μM, before NaF
Source text: Fluorescence change of inventive compound R3 before/after treated with NaF under different pH levels are described.

| SMILES | absorption and emission in visible range [1] | pH range in which the compound remains stable [2] |
| --- | --- | --- |
| CC(C)[Si](Oc1ccc(COC(=O)N2c3ccc(N(C)C)cc3Sc3cc(N(C)C)ccc32)cc1)(C(C)C)C(C)C [Compound R2, 4-((triisopropylsilyl)oxy)benzyl 3,7-bis(dimethylamino)-10H-phenothiazine-10-carboxylate] | no absorption and emission in visible range | – |
| CN(C)c1ccc2c(c1)Sc1cc(N(C)C)ccc1N2C(=O)OCc1ccc(O[Si](c2ccccc2)(c2ccccc2)C(C)(C)C)cc1 [Compound R1, 4-((tert-butyldiphenylsilyl)oxy)benzyl 3,7-bis(dimethylamino)-10H-phenothiazine-10-carboxylate] | no absorption and emission in visible range | – |
| CN(C)c1ccc2c(c1)Sc1cc(N(C)C)ccc1N2C(=O)OCc1ccc(O[Si](C)(C)C(C)(C)C)cc1 [Compound R3, 4-((tert-butyldimethylsilyl)oxy)benzyl 3,7-bis(dimethylamino)-10H-phenothiazine-10-carboxylate] | no absorption and emission in visible range | 2-12 |
